Patent US4959393A, “Skin depigmental agent” (priority 1988, dated 1990)
Read-outs that look alike come from different tables or passages of the source.

Assays:
tyrosinase [1] = assay: Measurement of Dopa Oxidation Activity (formation of dopa quinone from dopa); assay type: biochemical, Mushroom; conditions: L-dopa 5×10^-3 M; 10 units tyrosinase; 475 nm; control 15.80
From the text: (§1) Tyrosinase is a copper-containing enzyme which controls synthesis of melanin from starting tyrosine. This enzyme is considered to act as a catalyst for the formation of dopa, dopaquinone and indole-5,6-quinone which are, respectively, intermediates for the synthesis of melanin. We measured activities of the resorcinol derivatives of the formula (1) on inhibition of the formation reactions of the former two intermediates, i.e. the formation reaction of dopa (tyrosine hydroxylase) from tyrosine and the formation reaction of dopa quinone (dopa oxidase) from the dopa. From this, the activity on the tyrosinase activity inhibition was determined.
(§2) The presence or absence of UV absorptions of the substrate and the substance to be detected was confirmed, after which […] of tyrosinase (Mushroom, 200 units, made by Sigma Co., Ltd.) was added for starting the reaction. The variation in absorbance at 280 nm which is a maximum absorption of L-dopa was measured. The tyrosine hydroxylation activity was indicated a nmol dopa/min/mg of protein. The amount of the protein was measured according to Lowry's method.
(2) Measurement of Dopa Oxidation Activity
The general procedure of Measurement (1) was repeated except that L-dopa (5×10^-3 M) was used as a that produced dopa chrome was measured at a wavelength of 475 nm, and that 10 units of tyrosinase were used.
The dopa oxidation activity was indicated as μmol of dopa chrome/min/mg of protein.

tyrosinase [2] = assay: Measurement of Tyrosine Hydroxylation Activity (formation of dopa from tyrosine); assay type: biochemical; conditions: L-tyrosine 1×10^-4 M; 200 units mushroom tyrosinase; absorbance at 280 nm; control 1.83
From the text: as §1
(1) Measurement of Tyrosine Hydroxylation Activity
as §2

skin = conditions: cited from earlier work
salmonella typhimuria = conditions: Ames test using salmonella typhimuria
in vivo = conditions: mouse, ddy male mice
Method: The life or death of the mice before 24 hours was observed. The value of LD50 was calculated according to the Litchfield-Wilcoxom method using the above results.

[3] = ip, intraperitoneal, read-out: LD50 i.p.
[4] = po, peroral, read-out: LD50 p.o.
[5] = sc, subcutaneous, read-out: LD50 s.c.

Row | Structure (SMILES) | Activity (dopa oxidation activity) (tyrosinase [1]) | Activity (tyrosine hydroxylation activity) (tyrosinase [2]) | also measured
1 | CC(C)CCc1ccc(O)cc1O [Experiment 9] | 0.00 μmol of dopa chrome/min/mg of | – | –
2 | Cc1ccc(O)cc1O [Comparative Experiment 1, reference compound] | – | 1.78 nmol dopa/min/mg of protein | –
3 | N[C@@H](CCC(=O)N[C@@H](CS)C(=O)NCC(=O)O)C(=O)O [glutathione] | – | – | depigmental effect (skin): do not exhibit a satisfactory depigmental effect since the development of the effect is very slow
4 | CC(C)CCc1ccc(O)cc1O [Isoamyl resorcinol, 4-Isoamyl resorcinol] | – | – | variability (Ames test) (salmonella typhimuria): no variability
5 | CCCCCCc1ccc(O)cc1O [Experiment 10] | 0.00 μmol of dopa chrome/min/mg of | – | –
6 | Oc1ccc(O)cc1 [hydroquinone, reference compound] | 26.94 μmol of dopa chrome/min/mg of | 0.00 nmol dopa/min/mg of protein | –
7 | CCCCCCc1ccc(O)cc1O [drawing 16] | – | – | LD50 at 24 h (in vivo; [3]): 335 mg/kg; LD50 at 24 h (in vivo; [4]): > 500 mg/kg; LD50 at 24 h (in vivo; [5]): > 500 mg/kg
8 | CCCCc1ccc(O)cc1O [Experiment 2] | – | 0.00 nmol dopa/min/mg of protein | –
9 | CCCCCCCCc1ccc(O)cc1O [Experiment 11] | 0.00 μmol of dopa chrome/min/mg of | – | –
10 | CCc1ccc(O)cc1O [drawing 2] | – | 0.00 nmol dopa/min/mg of protein | –
11 | N[C@@H](CS)C(=O)O [cysteine] | – | – | depigmental effect (skin): do not exhibit a satisfactory depigmental effect since the development of the effect is very slow
12 | CC(C)CCc1ccc(O)cc1O [Experiment 3] | – | 0.00 nmol dopa/min/mg of protein | –
13 | CCCCCCCCc1ccc(O)cc1O [Experiment 5] | – | 0.00 nmol dopa/min/mg of protein | –
14 | Cc1ccc(O)cc1O [drawing 15, reference compound] | 16.81 μmol of dopa chrome/min/mg of | – | –
15 | CCCCc1ccc(O)cc1O [Experiment 8] | 0.00 μmol of dopa chrome/min/mg of | – | –
16 | CCCCCCc1ccc(O)cc1O [Experiment 4] | – | 0.00 nmol dopa/min/mg of protein | –
17 | CCCCCCCCCCCCc1ccc(O)cc1O [Experiment 12] | 7.19 μmol of dopa chrome/min/mg of | – | –
18 | CCCCCCCCCCCCc1ccc(O)cc1O [Experiment 6] | – | 0.33 nmol dopa/min/mg of protein | –
19 | CCc1ccc(O)cc1O [Experiment 7] | 7.44 μmol of dopa chrome/min/mg of | – | –
20 | CC(C)CCc1ccc(O)cc1O [drawing 17] | – | – | LD50 at 24 h (in vivo; [3]): 269 mg/kg; LD50 at 24 h (in vivo; [4]): > 500 mg/kg; LD50 at 24 h (in vivo; [5]): > 500 mg/kg
